Reference: patent US20250319139A1, “METHODS FOR TREATING NEUROINFLAMMATION” (University of Virginia Patent Foundation, priority 2021, published 2025)

Columns and labels:
Format in all cases: in vivo, mouse
IL-17 = assay: ELISA of IL-17 in the brain
Description: Mice were weighed and anesthetized with isoflurane at 24 h after MCAO. Blood samples were obtained from the right heart after thoracotomy. Blood was centrifuged (13,000 g, 4° C.) after it had been placed at 4° C. for 2 h for the collection of serum. After the collection of blood, mice were perfused with 4° C. saline for brain tissue harvesting. The cerebral cortex (anteroposterior: −1.5 to 2.5 mm, mediolateral: 1.0 to 3.0 mm) was dissected out. All dissection procedures were performed on ice.
(§1) IL-10, IL-17, IL-1β and IL-6 in the serum and brain were detected by using ELISA kits (catalog number: M1000B, M1700, MLB00C and D6050, R&D SYSTEM, Inc., Minneapolis, MN, USA) as we described before. The brain tissues were homogenized on ice in the RIPA buffer containing 25 mM Tris-HCl with pH 7.6, 150 mM NaCl, 1% sodium deoxycholate and 0.1% SDS (catalog number: 89901, Thermo Scientific, Rockford, IL, USA) and a protease inhibitor cocktail containing 10 mg/ml aproteinin, 5 mg/ml peptastin, 5 mg/ml leupetin and 1 mM phenylmethane sulfonylfluoride (catalog number: SRE0055, Sigma-Aldrich, St. Louis, MO, USA). The supernatant was collected for ELISA detection after being centrifuged for 20 min (13,000 g, 4° C.) and the protein concentration was determined by the BCA method. Cytokines in the serum and supernatant of brain were detected according to the manufacturer's instruction. The amount of IL-10, IL-17, IL-1β and IL-6 in each sample in the brain was normalized by its protein content.

GDNF = GDNF in the hippocampus by ELISA; conditions: exercise mice with surgery; intraperitoneal valeric acid
Description: IL-1β, IL-6, C3 and GDNF in the hippocampus were detected by using ELISA kits. For testing the IL-1β, IL-6 and GDNF, brain tissues were homogenized on ice in the RIPA buffer containing 25 mM Tris-HCl with pH 7.6, 150 mM NaCl, 1% sodium deoxycholate, 0.1% SDS and a protease inhibitor cocktail containing 10 mg/ml aproteinin, 5 mg/ml […], 5 mg/ml leupetin and 1 mM phenylmethane sulfonylfluoride. For C3 testing, brain tissues were homogenized on ice in the PTR buffer (supplied in the kit). The supernatant was collected for ELISA detection after the homogenate was centrifuged at 13,000 g for 20 min at 4° C. and the protein concentration was determined by the BCA protein assay (Bio-Rad, Hemel Hempstead, Herts, UK). IL-1β, IL-6, C3 and GDNF in supernatant of brain were detected according to the manufacturer's instruction for ELISA, and the amount of them in each sample in the brain was normalized by its total protein content and was expressed as pg/mg protein.

IL-1β = assay: ELISA of IL-1β in the serum; conditions: young mice, 100 mg/kg intraperitoneal 1 h before and 6 h after 120-min MCAO; 24 h after MCAO; vs saline
Description: as §1, with “Mice were weighed and anesthetized with isoflurane at 24 h after MCAO. Blood samples were obtained from the right heart after thoracotomy. Blood was centrifuged (13,000 g, 4° C.) after it had been placed at 4° C. for 2 h for the collection of serum. After the collection of blood, mice were perfused with 4° C. saline for brain tissue harvesting. The cerebral cortex (anteroposterior: -1.5 to 2.5 mm, mediolateral: 1.0 to 3.0 mm) was dissected out. All dissection procedures were performed on ice. IL-10,” for “IL-10,”, “[…],” for “peptastin,”, “The amount of IL-10, IL-17, IL-1β and IL-6 in each sample in the brain was normalized by its protein content.” left out

[1] = test system: newly generated brain cells; assay: BrdU immunofluorescent staining, brain cell genesis; conditions: young adult mice with exercise and surgery; intraperitoneal valeric acid
Description: Seven days after surgery, mice were given 7 consecutive intraperitoneal injections of 80 mg/kg 5′-bromo-2′-deoxyuridine (BrdU) at 12:00 once daily as previously described. Mice were sacrificed 5 days later for harvesting hippocampus. Hippocampus was fixed in 4% paraformaldehyde in 0.1 M phosphate-buffered saline at 4° C. for 24 h and embedded in paraffin. Five-micron thick coronal brain sections were cut sequentially from Bregma −2 to −4 mm. Antigen retrieval was performed by incubating sections with sodium citrate buffer containing 10 mM sodium citrate, 0.05% Tween 20 (pH 6.0) at 95-100° C. for 20 min. DNA denaturation was done by incubating with 1 N HCl on ice for 3 min, 2 N HCL at room temperature for 3 min, and at 37° C. for 6 min. Sections were blocked with 5% donkey serum in phosphate-buffered saline (PBS) containing 0.5% triton-X 100 for 2 h at room temperature. […] Images were acquired with a fluorescence microscope with a charge-coupled device camera (High Mag Olympus BX51) and a LSM710 confocal microscopy system (ZEISS). […] The number of all cells positively stained for an interested marker or the combination of two markers in the sub-granular zone of the dentate gyrus of each section was counted. The quantitative analyses were performed in a blinded manner.

CCCCC(=O)O [valeric acid]
IL-17 in the brain (cerebral cortex) (IL-17; mice without MCAO, valeric sodium 100 mg/kg intraperitoneal for 7 days): increase
IL-17 in the brain (IL-17; young mice with brain ischemia (120-min MCAO), intraperitoneal valeric acid): did not increase
GDNF levels in the hippocampus (GDNF): decreased
IL-1β in the blood (IL-1β): increased
exercise attenuation of the decrease of newly generated brain cells [1]: this attenuation was blocked
